From the supplement of paper PMC11997997

Columns and labels:
[1] = test system: murine bone marrow-derived macrophages; test: area under cytotoxicity dose-response curve (AUC (% cytotoxicity x dose, relative)); higher = more cytotoxic; conditions: duration: 6 days; dose range: 0.13-80 uM, 8 points
Outline: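 An 8-point, 2.5-fold dilution series (final 80–0.13 μM) was applied for 6 days at 37 °C in 5% CO2 to primary murine bone marrow-derived macrophages plated in opaque 384-well plates. Promega's CellTiter-Glo luminescence assay measured viability, and percent cytotoxicity was normalised against vehicle and positive control wells. The area under the dose–response curve, worked out in GraphPad Prism version 10, is the reported cytotoxicity measure.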

[2] = test system: Mycobacterium tuberculosis CDC1551 (intracellular, in murine BMDM); test: area under intracellular growth-inhibition dose-response curve (AUC (% inhibition x dose, relative)); higher = more potent; conditions: duration: 6 days; dose range: 0.13-80 uM, 8 points
Outline: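 Each value is an area under the growth-inhibition dose–response curve, calculated with GraphPad Prism. Infected primary murine bone marrow-derived macrophages, carrying luciferase-expressing M. tuberculosis CDC1551 at multiplicity of infection 1, were treated for 6 days with an 8-dose, 2.5-fold series (final 80–0.13 μM) in 384-well opaque plates. Readout was by Bright-Glo luciferin assay, normalised to a reference drug control and the lowest-concentration wells.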

Structure (SMILES)	area under cytotoxicity dose-response curve [1]	area under intracellular growth-inhibition dose-response curve [2]
Cc1cc(O)c2c(n1)c(C)cc1[nH]c(C)c(C)c12	< 0	137
CCC(CO)N1C(C)=CC(=Cc2sc3ccccc3[n+]2Cc2ccccc2)C=C1C.[Br-] (centres undefined)	54.8	176
O=C(/C=C\c1cccs1)N1CCN(Cc2ccc3c(c2)OCO3)CC1	135	218
O=C(Nc1cccc([N+](=O)[O-])c1)NC1CCCCCCC1	14	228
CC(C)CCNC(=O)c1csc2c1CCCCC2	42.8	250
C/C(Cn1cnc([N+](=O)[O-])n1)=N/NC(=O)COc1c(Cl)cc(Cl)cc1Cl	< 0	196
C/C(=N\NC(=O)c1ccncc1)C12CC3CC(CC(C3)C1)C2	97.9	239
Cc1c(Cl)cnn1CC(=O)NC1C(=O)N2C(C(=O)O)=C(CSc3nnnn3C)CSC12 (centres undefined)	18.6	168
CC(=NNC(=O)c1ccncc1)c1cccc(Cl)c1	< 0	258
CCCN(CCC)CC(O)Cn1cc(/C=C/C(=O)c2cccs2)c2ccccc21 (centres undefined)	2.01	231
CCOC(=O)c1ccc(N2CN(CC)CNC2=S)cc1	10.1	254
O=C(COc1ccc(Cl)cc1)N1CCCC1	64	213
CC(=O)c1c(C)[n+]([O-])c2ccccc2[n+]1[O-]	17.5	84.7
COc1ccc(C2=NOC(CNC(N)=S)C2)cc1 (centres undefined)	7.88	92.8
C=CCn1c(SCC(=O)NC(=O)Cc2ccccc2)nc2ccccc2c1=O	< 0	158
C/C(=N\Cc1ccc2c(c1)OCO2)C1=C(O)c2ccccc2C1=O	< 0	214

Structure (SMILES)	area under cytotoxicity dose-response curve [1]	area under intracellular growth-inhibition dose-response curve [2]
CCOC(=O)c1cn(Cc2cccc(C)c2)nn1	56.6	98.1
CCCCCCn1c(=O)c(C(=O)Nc2cnccn2)c(O)c2ccccc21	< 0	56.4
C/C(=N\NC(=O)c1ccncc1)c1ccc(N2CCOCC2)cc1	16.1	255
Cc1ccccc1CNC(=O)c1ccccc1	38.3	213
Cc1cccc(NC(=O)COC(=O)CCc2c[nH]c3ccccc23)c1C	28.4	27.4
CCCc1ccc(C(=O)CCC(=O)NNC(=O)c2ccncc2)cc1	9.69	270
CCc1cccc2sc(N3CCN(C(=O)c4ccc([N+](=O)[O-])o4)CC3)nc12	85.8	71.9
Cc1cc(/C=N/NC(N)=S)c(C)n1-c1cccc(Cl)c1	34	190
Cc1nnc(SCC2=C(C(=O)O)N3C(=O)C(NC(=O)Cn4ncc(Cl)c4C)C3SC2)s1 (centres undefined)	66.2	245
COc1cc(CNC23CC4CC(CC(C4)C2)C3)ccc1OCc1ccccc1.Cl	89.1	143
O=C(CCN1C(=O)/C(=C/c2cccs2)SC1=S)Nc1ccc(C(=O)O)c(O)c1	68.2	189
COc1c(/C=N/NC(=O)c2ccncc2)c(CCN(C)C(C)=O)cc2c1OCO2	96.3	252
CC(C)(C)c1nnc(NC(=S)Nc2ccccc2)s1	< 0	258
O=C(NCC1CC1(Cl)Cl)Nc1ccc(Cl)c(Cl)c1 (centres undefined)	111	239
O=C(NCc1ccc(F)cc1)c1ccc(Br)o1	42.3	228
C/C(=N\NC(N)=S)c1ccccc1	45.3	219
